In US20240300945A1, “CLY SERIES COMPOUND, PREPARATION METHOD THEREFOR AND USE THEREOF IN PREPARATION OF DRUGS” (NANJING WELLBEST PHARMACEUTICAL CO., LTD, priority 2021, published 2024):
Marks after values point to notes of the source that are not given here.

Experiments:
rat hair loss model = experiment: Rat hair loss (androgenic alopecia) model: hair length; format: in vivo, Wistar rats; settings: for 15-day hair length / 30-day hair length / 45-day hair length / 60-day hair length: rat AGA model; for adverse reactions: rat hair loss model, external use and system application, 60 days
Description: (1) Compound CLY-1, CLY-2, CLY-3, CLY-4, CLY-5, CLY-8, CLY-11, CLY-19, CLY-36, CLY-39 tincture preparation method: 75% ethanol was mixed with appropriate amount of above compounds to prepare a tincture of different concentrations.
(2) Positive treatment drug: 5% minoxidil tincture (trade name: Mandi, Zhejiang Wanma Pharmaceutical Co., Ltd.).
Wistar rats were, according to weights, randomly divided into the negative control group (75% ethanol for external use), model group (75% ethanol for external use), positive control group (external 5% minoxidil tincture), CLY-1 external treatment group (external 5% CLY-1 tincture), CLY-2 external treatment group (external 5% CLY-2 tincture), CLY-3 external treatment group (external 5% CLY-3 tincture), CLY-4 external treatment group (external 5% CLY-4 tincture), and CLY-5 external treatment group (external 5% CLY-5 tincture) according to their body weight CLY-8 external treatment group (external 5% CLY-8 tincture), CLY-11 external treatment group (external 5% CLY-11 tincture), CLY-19 external treatment group (external 5% CLY-19 tincture), CLY-36 external treatment group (external 5% CLY-36 tincture), CLY-39 external treatment group (external 5% CLY-39 tincture), CLY-1 intravenous injection group (2 mg/kg·d), CLY-3 intravenous injection group (2 mg/kg·d), CLY-4 intravenous injection group (2 mg/kg·d) CLY-5 intravenous injection group (2 mg/kg·d), CLY-8 intravenous injection group (2 mg/kg·d), CLY-11 intravenous injection group (2 mg/kg·d), CLY-19 intravenous injection group (2 mg/kg·d), CLY-36 intravenous injection group (2 mg/kg·d), and CLY-39 intravenous injection group (2 mg/kg·d), with 10 rats in each group. Before the experiment, an area of 4 cm×5 cm was selected on each rat on the back of the neck to remove hair as the observation area. In addition to the negative control group, rats were subcutaneously injected with testosterone propionate injection [5 ml/(kg·d)] once a day for 60 days to establish the androgenic alopecia (AGA) model. […] At the same time, the drug was applied to the observation area on the back of the rats in the corresponding drug group at the rate of 2 mL/(one time), twice a day, at an interval of 8 hours; Intravenous administration once a day. The negative control group and the model control group were smeared with 75% ethanol solution, 2 mL/(one rat per time), twice a day, for 60 days.
Took 10 hairs from the observation area on the back of each rat every 15 days after administration, and measured the hair length with a vernier caliper. After 60 days of administration, the skin of the experimental observation area was taken for routine tissue dehydration, paraffin embedding, HE staining, and light microscopy to observe the histopathological changes of the rat skin hair follicles and sebaceous glands. Semi-quantitative analysis was performed for each group. The grading criteria are as follows: the normal structure of dermal tissue cells, subcutaneous hair follicles, and sebaceous glands is marked as […]: no hyperplasia of dermal tissue is found, the lesions of hair follicles and sebaceous glands are limited, and no inflammation is found under the skin is marked as “+”: no obvious hyperplasia of dermal tissue is found, and the follicles are obviously cystic. No obvious hyperplasia of sebaceous glands is found, and no inflammation is found under the skin is marked as “+”: the dermal tissue has segmental hyperplasia, which is not obvious, A small number of hair follicles have cystic changes, and the sebaceous glands have mild hyperplasia and hypertrophy. There is no obvious inflammation under the skin, which is marked as “++”: the dermal tissue cells of the skin have different degrees of segmental hyperplasia, and some hair follicles have cystic changes, showing uneven size of hair follicles, and no cells around. The sebaceous glands have hyperplasia, and the nuclei in the proliferative glands are few. […]

[1] = system: skin hair follicles and sebaceous glands of mice; experiment: Mouse hair loss model: histopathological grading of skin hair follicles and sebaceous glands; format: in vivo, C57BL/6 mice; settings: external 2% tincture, 60 days, 6 mice per group; for number of mice with hair follicle and sebaceous gland grade +++: grade +++ (most severe); for number of mice with hair follicle and sebaceous gland grade ±: grade ± (lesions limited); for number of mice with hair follicle and sebaceous gland grade −: grade − (normal structure)
Description: The experimental mice were divided into the negative control group (external use of 60% ethanol), model group (external use of 60% ethanol), positive control group (external use of 2% minoxidil tincture), CLY-1 external treatment group (external use of 2% CLY-1 tincture), CLY-2 external treatment group (external use of 2% CLY-2 tincture), CLY-3 external treatment group (external use of 2% CLY-3 tincture), CLY-4 external treatment group (external use of 2% CLY-4 tincture), CLY-8 external treatment group (external use of 2% CLY-8 tincture) CLY-11 external treatment group (2% CLY-11 tincture), CLY-19 external treatment group (2% CLY-19 tincture), CLY-36 external treatment group (2% CLY-36 tincture), and CLY-39 external treatment group (2% CLY-39 tincture). There were 6 animals in each group, half male and half female. An area of 4 cm×5 cm from the back of experimental mice with hair removed was selected, and the hair removal area was painted yellow with 3% picric acid solution to determine the observation area of the hair removal experiment. In addition to the negative control group, mice in other groups were injected subcutaneously with testosterone propionate injection [8 ml/(kg·d)] at the back of the neck, once a day, for 60 consecutive days, to establish the model of androgenic alopecia (AGA). At the same time of modeling, the rats in the corresponding drug group were smeared with drugs on the observation area of the back at the rate of 1 ml/(piece·time), twice a day, with an interval of 2 hours. The normal control group and the model control group were smeared with the excipient (60% ethanol solution), 1 ml/(one time), twice a day, for 60 consecutive days.
10 hairs were extracted from the observation area on the back of each mouse every 15 days after administration, and the hair length was measured with a vernier caliper. After 60 days of administration, the skin of the experimental observation area was taken for routine tissue dehydration, paraffin embedding, HE staining, and light microscopy to observe the histopathological changes of mouse skin hair follicles and sebaceous glands. Semi-quantitative analysis was performed for each group. The grading criteria are as follows: the normal structure of dermal tissue cells, subcutaneous hair follicles, and sebaceous glands is marked as […]: no hyperplasia of dermal tissue is found, the lesions of hair follicles and sebaceous glands are limited, and no inflammation is found under the skin is marked as “+”: no obvious hyperplasia of dermal tissue is found, and the follicles are obviously cystic. No obvious hyperplasia of sebaceous glands is found, and no inflammation is found under the skin is marked as “+”: the dermal tissue has segmental hyperplasia, which is not obvious, A small number of hair follicles have cystic changes, and the sebaceous glands have mild hyperplasia and hypertrophy. There is no obvious inflammation under the skin, which is marked as “++”: the dermal tissue cells of the skin have different degrees of segmental hyperplasia, and some hair follicles have cystic changes, showing uneven size of hair follicles, and no cells around. The sebaceous glands have hyperplasia, and the nuclei in the proliferative glands are few. A few subcutaneous mild inflammatory hyperplasia is marked as “+++”.

[2] = external 5% tincture twice a day
[3] = intravenous injection 2 mg/kg·d

SMILES | 15-day hair length (rat hair loss model; [2]) | 30-day hair length (rat hair loss model; [2]) | 45-day hair length (rat hair loss model; [2]) | 60-day hair length (rat hair loss model; [2]) | 15-day hair length (rat hair loss model; [3]) | 30-day hair length (rat hair loss model; [3]) | 45-day hair length (rat hair loss model; [3]) | 60-day hair length (rat hair loss model; [3]) | adverse reactions (rat hair loss model) | number of mice with hair follicle and sebaceous gland grade +++ [1] | number of mice with hair follicle and sebaceous gland grade ++ [1] | number of mice with hair follicle and sebaceous gland grade + [1] | number of mice with hair follicle and sebaceous gland grade ± [1] | number of mice with hair follicle and sebaceous gland grade − [1]
O=C(c1ccc(-c2ccccc2-c2nnn[nH]2)cc1)N(c1ncccc1Cl)[C@@H]1CCCNC1 [CLY-19] | 8.5* mm | 9.4* mm | 14.02* mm | 17.6* mm | 8.8* mm | 9.7* mm | 14.9* mm | 17.8* mm | no obvious adverse reactions | 0 | 1 | 2 | 3 | 0
O=C(c1ccc(-c2ccccc2Cl)cc1)N(c1ncccc1Cl)[C@@H]1CCCNC1 [CLY-36] | 8.1* mm | 8.7* mm | 13.81* mm | 17.1* mm | 8.6* mm | 9.2* mm | 14.2* mm | 17.3* mm | no obvious adverse reactions | 0 | 2 | 1 | 3 | 0
Nc1ccccc1-c1ccc(C(=O)N(c2ncccc2Cl)[C@@H]2CCCNC2)cc1 [CLY-39] | 9.1* mm | 9.3* mm | 14.8* mm | 18.2* mm | 9.3* mm | 9.9* mm | 14.9* mm | 18.1* mm | no obvious adverse reactions | 0 | 1 | 2 | 3 | 0
Nc1cc(N2CCCCC2)nc(N)[n+]1[O-] [Positive control group, minoxidil, reference compound] | 7.6* mm | 8.5* mm | 13.1* mm | 16.2* mm |  |  |  |  |  | 0 | 3 | 1 | 2 | 0
